Tests used:
Experiment in all cases: Bacterial panel testing, MIC by broth microdilution
Type in all cases: cell-based
Conditions in all cases: 20-24 hours growth
[1] = test system: Bacillus atrophaeus
Outline: (§1)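 Twofold broth microdilution: compound, prepared at 10 μg/ml in DMSO, serially diluted left to right in inoculated Mueller-Hinton or Brain Heart infusion media. Inoculum from 2-4 h cultures at 37° C, standardized to McFarland density. Plates sealed and grown 20-24 h, then clear wells scored.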

[2] = test system: Eschericia coli
Outline: as §1

[3] = test system: Pseudomonas aeruginosa
Outline: as §1

[4] = test system: Enterococcus faecium
Outline: as §1

[5] = test system: Salmonella choleraesuis
Outline: as §1

[6] = test system: Staphylococcus aureus
Outline: as §1

Row | SMILES | MIC BA [1] [mg/L] | MIC EC [2] [mg/L] | MIC PA [3] [mg/L] | MIC EF [4] [mg/L] | MIC SC [5] [mg/L] | MIC SA [6] [mg/L]
1 | CN(C)C[C@H]1O[C@@H]2O[C@H]3[C@H](O)[C@@H](O)[C@@H](O[C@H]4[C@H](O)[C@@H](O)[C@@H](O[C@H]5[C@H](O)[C@@H](O)[C@@H](O[C@H]6[C@H](O)[C@@H](O)[C@@H](O[C@H]7[C@H](O)[C@@H](O)[C@@H](O[C@H]8[C@H](O)[C@@H](O)[C@@H](O[C@H]1[C@H](O)[C@H]2O)O[C@@H]8CN(C)C)O[C@@H]7CN(C)C)O[C@@H]6CN(C)C)O[C@@H]5CN(C)C)O[C@@H]4CN(C)C)O[C@@H]3CN(C)C | <0.2 | >200 | >200 | >200 | >200 | >200
2 | CC(C)[C@H](N)C(=O)NC[C@H]1O[C@@H]2O[C@H]3[C@H](O)[C@@H](O)[C@@H](O[C@H]4[C@H](O)[C@@H](O)[C@@H](O[C@H]5[C@H](O)[C@@H](O)[C@@H](O[C@H]6[C@H](O)[C@@H](O)[C@@H](O[C@H]7[C@H](O)[C@@H](O)[C@@H](O[C@H]8[C@H](O)[C@@H](O)[C@@H](O[C@H]1[C@H](O)[C@H]2O)O[C@@H]8CNC(=O)[C@@H](N)C(C)C)O[C@@H]7CNC(=O)[C@@H](N)C(C)C)O[C@@H]6CNC(=O)[C@@H](N)C(C)C)O[C@@H]5CNC(=O)[C@@H](N)C(C)C)O[C@@H]4CNC(=O)[C@@H](N)C(C)C)O[C@@H]3CNC(=O)[C@@H](N)C(C)C.Cl.Cl.Cl.Cl.Cl.Cl.Cl | >200 | >200 | >200 | >200 | >200 | >200
3 | Cl.Cl.Cl.Cl.Cl.Cl.Cl.N[C@@H](CC(=O)O)C(=O)NC[C@H]1O[C@@H]2O[C@H]3[C@H](O)[C@@H](O)[C@@H](O[C@H]4[C@H](O)[C@@H](O)[C@@H](O[C@H]5[C@H](O)[C@@H](O)[C@@H](O[C@H]6[C@H](O)[C@@H](O)[C@@H](O[C@H]7[C@H](O)[C@@H](O)[C@@H](O[C@H]8[C@H](O)[C@@H](O)[C@@H](O[C@H]1[C@H](O)[C@H]2O)O[C@@H]8CNC(=O)[C@@H](N)CC(=O)O)O[C@@H]7CNC(=O)[C@@H](N)CC(=O)O)O[C@@H]6CNC(=O)[C@@H](N)CC(=O)O)O[C@@H]5CNC(=O)[C@@H](N)CC(=O)O)O[C@@H]4CNC(=O)[C@@H](N)CC(=O)O)O[C@@H]3CNC(=O)[C@@H](N)CC(=O)O | >200 | >200 | >200 | >200 | >200 | >200
4 | Cl.Cl.Cl.Cl.Cl.Cl.Cl.NCCCC(=O)NC[C@H]1O[C@@H]2O[C@H]3[C@H](O)[C@@H](O)[C@@H](O[C@H]4[C@H](O)[C@@H](O)[C@@H](O[C@H]5[C@H](O)[C@@H](O)[C@@H](O[C@H]6[C@H](O)[C@@H](O)[C@@H](O[C@H]7[C@H](O)[C@@H](O)[C@@H](O[C@H]8[C@H](O)[C@@H](O)[C@@H](O[C@H]1[C@H](O)[C@H]2O)O[C@@H]8CNC(=O)CCCN)O[C@@H]7CNC(=O)CCCN)O[C@@H]6CNC(=O)CCCN)O[C@@H]5CNC(=O)CCCN)O[C@@H]4CNC(=O)CCCN)O[C@@H]3CNC(=O)CCCN | >200 | >200 | >200 | >200 | >200 | >200
5 | Cl.Cl.Cl.Cl.Cl.Cl.Cl.N[C@@H](Cc1ccc(OCc2ccccc2)cc1)C(=O)NC[C@H]1O[C@@H]2O[C@H]3[C@H](O)[C@@H](O)[C@@H](O[C@H]4[C@H](O)[C@@H](O)[C@@H](O[C@H]5[C@H](O)[C@@H](O)[C@@H](O[C@H]6[C@H](O)[C@@H](O)[C@@H](O[C@H]7[C@H](O)[C@@H](O)[C@@H](O[C@H]8[C@H](O)[C@@H](O)[C@@H](O[C@H]1[C@H](O)[C@H]2O)O[C@@H]8CNC(=O)[C@@H](N)Cc1ccc(OCc2ccccc2)cc1)O[C@@H]7CNC(=O)[C@@H](N)Cc1ccc(OCc2ccccc2)cc1)O[C@@H]6CNC(=O)[C@@H](N)Cc1ccc(OCc2ccccc2)cc1)O[C@@H]5CNC(=O)[C@@H](N)Cc1ccc(OCc2ccccc2)cc1)O[C@@H]4CNC(=O)[C@@H](N)Cc1ccc(OCc2ccccc2)cc1)O[C@@H]3CNC(=O)[C@@H](N)Cc1ccc(OCc2ccccc2)cc1 | >200 | >200 | >200 | >200 | >200 | >200
6 | O=C(O)COC[C@H]1O[C@@H]2O[C@H]3[C@H](O)[C@@H](O)[C@@H](O[C@H]4[C@H](O)[C@@H](O)[C@@H](O[C@H]5[C@H](O)[C@@H](O)[C@@H](O[C@H]6[C@H](O)[C@@H](O)[C@@H](O[C@H]7[C@H](O)[C@@H](O)[C@@H](O[C@H]8[C@H](O)[C@@H](O)[C@@H](O[C@H]1[C@H](O)[C@H]2O)O[C@@H]8COCC(=O)O)O[C@@H]7COCC(=O)O)O[C@@H]6COCC(=O)O)O[C@@H]5COCC(=O)O)O[C@@H]4COCC(=O)O)O[C@@H]3COCC(=O)O | >200 | >200 | >200 | >200 | >200 | >200
7 | Cc1c(NC[C@H]2O[C@@H]3O[C@H]4[C@H](O)[C@@H](O)[C@@H](O[C@H]5[C@H](O)[C@@H](O)[C@@H](O[C@H]6[C@H](O)[C@@H](O)[C@@H](O[C@H]7[C@H](O)[C@@H](O)[C@@H](O[C@H]8[C@H](O)[C@@H](O)[C@@H](O[C@H]9[C@H](O)[C@@H](O)[C@@H](O[C@H]2[C@H](O)[C@H]3O)O[C@@H]9CNc2c(C)n(C)n(-c3ccccc3)c2=O)O[C@@H]8CNc2c(C)n(C)n(-c3ccccc3)c2=O)O[C@@H]7CNc2c(C)n(C)n(-c3ccccc3)c2=O)O[C@@H]6CNc2c(C)n(C)n(-c3ccccc3)c2=O)O[C@@H]5CNc2c(C)n(C)n(-c3ccccc3)c2=O)O[C@@H]4CNc2c(C)n(C)n(-c3ccccc3)c2=O)c(=O)n(-c2ccccc2)n1C | >200 | >200 | >200 | >200 | >200 | >200
8 | O=C(C1CCCO1)N1CCN(CC2OC3OC4C(CN5CCN(C(=O)C6CCCO6)CC5)OC(OC5C(CN6CCN(C(=O)C7CCCO7)CC6)OC(OC6C(CN7CCN(C(=O)C8CCCO8)CC7)OC(OC7C(CN8CCN(C(=O)C9CCCO9)CC8)OC(OC8C(CN9CCN(C(=O)C%10CCCO%10)CC9)OC(OC9C(CN%10CCN(C(=O)C%11CCCO%11)CC%10)OC(OC2C(O)C3O)C(O)C9O)C(O)C8O)C(O)C7O)C(O)C6O)C(O)C5O)C(O)C4O)CC1 (stereo not drawn) | >200 | >200 | >200 | >200 | >200 | >200
9 | OC1C2OC(CNc3ccccc3)C(OC3OC(CNc4ccccc4)C(OC4OC(CNc5ccccc5)C(OC5OC(CNc6ccccc6)C(OC6OC(CNc7ccccc7)C(OC7OC(CNc8ccccc8)C(OC8OC(CNc9ccccc9)C(O2)C(O)C8O)C(O)C7O)C(O)C6O)C(O)C5O)C(O)C4O)C(O)C3O)C1O (stereo not drawn) | >200 | >200 | >200 | >200 | >200 | >200
10 | CCCCCCCCCCCC[N+]12CC[N+](CC(=O)NCC3OC4OC5C(CNC(=O)C[N+]67CC[N+](CCCCCCCCCCCC)(CC6)CC7)OC(OC6C(CNC(=O)C[N+]78CC[N+](CCCCCCCCCCCC)(CC7)CC8)OC(OC7C(CNC(=O)C[N+]89CC[N+](CCCCCCCCCCCC)(CC8)CC9)OC(OC8C(CNC(=O)C[N+]9%10CC[N+](CCCCCCCCCCCC)(CC9)CC%10)OC(OC9C(CNC(=O)C[N+]%10%11CC[N+](CCCCCCCCCCCC)(CC%10)CC%11)OC(OC%10C(CNC(=O)C[N+]%11%12CC[N+](CCCCCCCCCCCC)(CC%11)CC%12)OC(OC3C(O)C4O)C(O)C%10O)C(O)C9O)C(O)C8O)C(O)C7O)C(O)C6O)C(O)C5O)(CC1)CC2 (stereo not drawn) | >200 | >200 | >200 | >200 | >200 | >200
11 | OC1C2OC(CN3CCN(c4ccccn4)CC3)C(OC3OC(CN4CCN(c5ccccn5)CC4)C(OC4OC(CN5CCN(c6ccccn6)CC5)C(OC5OC(CN6CCN(c7ccccn7)CC6)C(OC6OC(CN7CCN(c8ccccn8)CC7)C(OC7OC(CN8CCN(c9ccccn9)CC8)C(OC8OC(CN9CCN(c%10ccccn%10)CC9)C(O2)C(O)C8O)C(O)C7O)C(O)C6O)C(O)C5O)C(O)C4O)C(O)C3O)C1O (stereo not drawn) | >200 | >200 | >200 | >200 | >200 | >200
12 | Cl.Cl.Cl.Cl.Cl.Cl.NCCCSCC1OC2OC3C(CSCCCN)OC(OC4C(CSCCCN)OC(OC5C(CSCCCN)OC(OC6C(CSCCCN)OC(OC7C(CSCCCN)OC(OC1C(O)C2O)C(O)C7O)C(O)C6O)C(O)C5O)C(O)C4O)C(O)C3O (stereo not drawn) | >200 | >200 | >200 | >200 | >200 | >200
13 | COCCNCC1OC2OC3C(CNCCOC)OC(OC4C(CNCCOC)OC(OC5C(CNCCOC)OC(OC6C(CNCCOC)OC(OC7C(CNCCOC)OC(OC8C(CNCCOC)OC(OC1C(O)C2O)C(O)C8O)C(O)C7O)C(O)C6O)C(O)C5O)C(O)C4O)C(O)C3O (stereo not drawn) | >200 | >200 | >200 | >200 | >200 | >200
14 | CC(=O)NCC1OC2OC3C(CNC(C)=O)OC(OC4C(CNC(C)=O)OC(OC5C(CNC(C)=O)OC(OC6C(CNC(C)=O)OC(OC7C(CNC(C)=O)OC(OC8C(CNC(C)=O)OC(OC1C(O)C2O)C(O)C8O)C(O)C7O)C(O)C6O)C(O)C5O)C(O)C4O)C(O)C3O (stereo not drawn) | >200 | >200 | >200 | >200 | >200 | >200

Source: patent US20110071108A1, “Beta-Cyclodextrin Derivatives as Antibacterial Agents” (Pinnacle Pharmaceuticals, Inc., priority 2005, published 2011)
